Data reported in patent EP3132692A1, “Compositions comprising small molecular inhibitors suitable to inhibit and stimulate signaling pathways in a manner leading to prevention of muscle atrophy” (priority 2015, dated 2017).

Tests used:
resistance trained men [1] = assay: Strength measures: 1-repetition maximum (1-RM) bench press and squat, efficacy study; format: in vivo
[2] = Body composition by dual energy x-ray absorptiometry (DEXA), efficacy study; format: in vivo, men
Description: (§1) In the efficacy study, 18 resistance trained men with at least 5 years of experience in weight lifting voluntarily participated. Participants were divided in 3 equal groups; receiving placebo (hypromellose, 2 times a day), (-)-epicatechin ((EPI), 2x 150 mg a day) and (-)-epicatechin combined with hesperetin and myricetin ((E+H+M), 2x 150+100+50 mg a day). Maximally trained individuals were chosen as further muscle gains in such groups are usually minimal, even with dietary interventions. This is primarily explained due to a fact that such trained individuals reached so called "natural genetic plateau" where muscle tissue works within physiological optimum defined by the genetic blueprints, so even radical interventions (except anabolic steroids) and exercise regime cannot bring significant results. This was confirmed by participants as they had no means to achieve particularly better results over last few years of exercise. All subjects were asked to maintain the same caloric intake during 12 week study 5 days a week exercise. During 2 months study participants were taking 30 g of post exercise amino acid blend (whey, soy and casein protein) with following profile per 100 g: • Alanine 7.1g, arginine 9.2 g, aspartic acid 6.2 g, glutamic acid 21.5 g, glycine 12.2 g, histidine 1.1 g, isoleucine 6.9 g, leucine 11.1 g, methionine 0.3 g, phenylalanine 2.7 g, proline 11.2 g, serine 2.7 g, threonine 1.5 g, tyrosine 0.5 g and valine 5.8 g.
(§2) Body composition was examined at the beginning and the end of study using dual energy x-ray absorptiometry - DEXA scans (DiscoveryTM by Hologic). Total body estimates of fat and non-bone lean tissue were determined according to company supplied algorithms. Muscle thickness for Vastus lateralis and Triceps brachii lateralis was examined at the beginning and the end of study by B-mode ultrasound imaging (Toshiba PowerVision 8000) as the distance between the subcutaneous adipose tissue and inter-muscular belly interface. Total Cretine Kinase as a marker of muscle damage was performed by VITROS® 4600 (Ortho Clinical Diagnostics) at the beginning and the end of study.

resistance trained men [3] = assay: Muscle thickness by B-mode ultrasound imaging, efficacy study; format: in vivo
Description: as §1, §2

resistance trained men [4] = assay: Total creatine kinase as marker of muscle damage, efficacy study; format: in vivo
Description: as §1, with “During 2 months study participants were taking 30 g of post exercise amino acid blend (whey, soy and casein protein) with following profile per 100 g: • Alanine 7.1g, arginine 9.2 g, aspartic acid 6.2 g, glutamic acid 21.5 g, glycine 12.2 g, histidine 1.1 g, isoleucine 6.9 g, leucine 11.1 g, methionine 0.3 g, phenylalanine 2.7 g, proline 11.2 g, serine 2.7 g, threonine 1.5 g, tyrosine 0.5 g and valine 5.8 g.” left out
Body composition was examined at the beginning and the end of study using dual energy x-ray absorptiometry - DEXA scans (DiscoveryTM by Hologic). Total body estimates of fat and non-bone lean tissue were determined according to company supplied algorithms. […]

aged men = conditions: treatment for 7 days; cited from earlier work
PDE4 isomer = conditions: cited from earlier work
TGFβ-II receptor = TGFβ-II receptor (Homo sapiens, UniProt P37173); conditions: 100µM; cited from earlier work
PPARγ = target: T1, PPARγ (Homo sapiens, UniProt P37231); conditions: cited from earlier work
T1 sequence (P37231 1-505): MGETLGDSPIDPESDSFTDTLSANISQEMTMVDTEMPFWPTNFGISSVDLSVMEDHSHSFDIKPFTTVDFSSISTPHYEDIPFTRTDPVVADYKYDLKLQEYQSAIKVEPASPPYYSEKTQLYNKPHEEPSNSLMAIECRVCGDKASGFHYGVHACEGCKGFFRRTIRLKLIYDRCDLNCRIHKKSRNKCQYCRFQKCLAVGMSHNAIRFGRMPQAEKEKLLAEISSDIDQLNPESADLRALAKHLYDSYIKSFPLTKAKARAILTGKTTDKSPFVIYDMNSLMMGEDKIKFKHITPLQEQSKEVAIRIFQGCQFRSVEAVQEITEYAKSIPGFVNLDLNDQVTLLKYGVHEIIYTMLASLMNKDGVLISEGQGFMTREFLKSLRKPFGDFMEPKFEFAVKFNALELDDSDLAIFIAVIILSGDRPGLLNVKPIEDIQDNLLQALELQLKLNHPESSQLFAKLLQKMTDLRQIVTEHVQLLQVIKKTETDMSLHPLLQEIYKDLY

PPARα = target: T2, PPARα (Homo sapiens, UniProt Q07869); conditions: cited from earlier work
T2 sequence (Q07869 1-468): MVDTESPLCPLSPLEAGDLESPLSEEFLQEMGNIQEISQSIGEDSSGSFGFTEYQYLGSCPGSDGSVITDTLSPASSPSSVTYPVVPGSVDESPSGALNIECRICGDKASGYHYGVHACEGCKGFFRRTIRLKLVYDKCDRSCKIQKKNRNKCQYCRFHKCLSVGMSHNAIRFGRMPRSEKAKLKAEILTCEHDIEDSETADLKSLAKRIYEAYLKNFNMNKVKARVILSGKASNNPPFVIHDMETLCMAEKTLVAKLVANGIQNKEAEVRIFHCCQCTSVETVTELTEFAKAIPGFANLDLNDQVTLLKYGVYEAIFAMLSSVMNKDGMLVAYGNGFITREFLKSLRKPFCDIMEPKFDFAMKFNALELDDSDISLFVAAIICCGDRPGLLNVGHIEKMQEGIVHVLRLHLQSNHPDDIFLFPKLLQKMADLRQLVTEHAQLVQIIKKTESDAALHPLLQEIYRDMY

UGT enzymes = conditions: after absorption; cited from earlier work
[5] = via orange juice alongside 150 mL yogurt; cited from earlier work
myoblast C2C12 cells = conditions: 100µM; low mitogen medium; cited from earlier work
[6] = tested on: mice subjected to freeze injury (tibialis); conditions: injections at 50mg/kg for six days; relative to control; cited from earlier work
C. Elegans = conditions: cited from earlier work
[7] = target: human DNA topoisomerase II (topo II); conditions: cited from earlier work
[8] = BEGGINING of study, resistance trained men
[9] = END of 12 week study, EPI 2x 150 mg a day, E+H+M 2x 150+100+50 mg a day

Sequence of TGFβ-II receptor (P37173 23-567): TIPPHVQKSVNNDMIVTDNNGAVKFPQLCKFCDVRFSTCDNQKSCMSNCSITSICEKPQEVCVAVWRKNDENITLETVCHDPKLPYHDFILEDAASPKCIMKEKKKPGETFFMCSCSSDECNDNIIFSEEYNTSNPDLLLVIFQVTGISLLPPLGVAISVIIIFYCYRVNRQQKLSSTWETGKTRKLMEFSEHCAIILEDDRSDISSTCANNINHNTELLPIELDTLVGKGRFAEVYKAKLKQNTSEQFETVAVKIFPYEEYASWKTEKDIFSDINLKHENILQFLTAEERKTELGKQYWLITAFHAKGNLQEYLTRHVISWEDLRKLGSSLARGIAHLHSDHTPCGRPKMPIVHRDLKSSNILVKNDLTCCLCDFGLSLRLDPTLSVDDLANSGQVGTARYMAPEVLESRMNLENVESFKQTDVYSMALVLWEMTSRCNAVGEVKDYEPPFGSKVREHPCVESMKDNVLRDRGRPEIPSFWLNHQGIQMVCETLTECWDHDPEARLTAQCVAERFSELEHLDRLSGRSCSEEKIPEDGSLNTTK

Oc1cc(O)c2c(c1)O[C@H](c1ccc(O)c(O)c1)[C@H](O)C2 [EPI, (-)-epicatechin]
1- RM BENCH PRESS (resistance trained men [1]; [8]): 148±21 | 1-RM SQUAT (resistance trained men [1]; [8]): 153 ± 24 kg | 1-RM SQUAT (resistance trained men [1]; [9]): 170 ± 22 kg | Body fat [2, 8]: 11.2 ± 5.3 kg | Body mass [2, 8]: 93.2 ± 14.6 kg | Lean body mass [2, 8]: 76.4 ± 5.8 kg | Body fat [2, 9]: 9.1 ± 4.2 kg | Body mass [2, 9]: 93.8 ± 10.5 kg | Lean body mass [2, 9]: 77.2 ± 5.8 kg | Triceps Brachii Lateralis thickness (resistance trained men [3]; [8]): 30.8±4.4 mm | Vastus Lateralis thickness (resistance trained men [3]; [8]): 23.8±3.9 mm | Triceps Brachii Lateralis thickness (resistance trained men [3]; [9]): 33.8±2.2 mm | Vastus Lateralis thickness (resistance trained men [3]; [9]): 24.6±2.9 mm | Total Creatine Kinase (CK reff range: 38-120 ng/ml) (resistance trained men [4]; [8]): 86 ± 24 ng/mL | Total Creatine Kinase (CK reff range: 38-120 ng/ml) (resistance trained men [4]; [9]): 73 ± 16 ng/mL | hand grip strength (aged men): increases | ratio of plasma follistatin/myostatin (aged men): increases

COc1ccc(C2CC(=O)c3c(O)cc(O)cc3O2)cc1O (stereo not shown) [hesperetin, 5,7,3'-trihydroxy-4'-methoxyflavanone]
IC50 (PDE4 isomer): 28.2 ± 1.1 µM | ability of a ligand to associate with the TGFβ-II receptor (TGFβ-II receptor): approximately halve | concentration range of concentration dependent stimulation of PPARγ activity (PPARγ): 20 to 160 µM | concentration range of concentration dependent stimulation of PPARα activity (PPARα): 20 to 160 µM

COc1ccc(C2CC(=O)c3c(O)cc(OC4OC(COC5OC(C)C(O)C(O)C5O)C(O)C(O)C4O)cc3O2)cc1O (stereo not shown) [hesperidin, hesperetin-7-O-rutinoside]
found as hesperetin monoglucuronide (UGT enzymes): up to 87% | found as sulphoglucuronides (UGT enzymes): 13% | reduction of Cmax of the main metabolite (hesperitin-7-O-glucuronide) [5]: 29% | reduction of overall exposure (AUC) of the main metabolite [5]: 27% | myocyte differentiation (myoblast C2C12 cells): able to promote myocyte differentiation | muscle regenerative capabilities [6]: significantly enhanced

O=c1c(O)c(-c2cc(O)c(O)c(O)c2)oc2cc(O)cc(O)c12 [myricetin]
prolongation of average lifespan (C. Elegans; C. Elegans): 18% | prolongation of maximal lifespan (C. Elegans; C. Elegans): 21.7% | increase of average lifespan (C. Elegans; mev-1(kn1) mutants): 16% | IC50 [7]: 27.5 µM
